Patent publication US12565501B2, “Muscarinic acetylcholine M1 receptor antagonists” (Contineum Therapeutics, Inc., priority 2019, dated 2026)

Biological target: T1, human M1 receptor (Homo sapiens, UniProt P11229)
T1 sequence (P11229 1-460): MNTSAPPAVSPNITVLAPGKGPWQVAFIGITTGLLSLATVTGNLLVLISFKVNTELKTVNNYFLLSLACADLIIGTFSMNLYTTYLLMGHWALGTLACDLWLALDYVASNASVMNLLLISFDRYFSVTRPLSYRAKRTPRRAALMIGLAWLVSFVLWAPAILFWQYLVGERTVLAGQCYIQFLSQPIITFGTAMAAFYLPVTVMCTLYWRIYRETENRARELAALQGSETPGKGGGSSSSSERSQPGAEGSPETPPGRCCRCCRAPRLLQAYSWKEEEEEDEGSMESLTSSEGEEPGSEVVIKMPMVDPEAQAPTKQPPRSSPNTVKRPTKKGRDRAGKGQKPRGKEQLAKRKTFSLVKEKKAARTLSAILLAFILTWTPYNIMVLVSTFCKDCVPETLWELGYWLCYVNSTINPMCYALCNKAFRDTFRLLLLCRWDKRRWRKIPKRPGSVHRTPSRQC
Test: In vitro functional assay of muscarinic acetylcholine receptor activity (aequorin calcium flux, reversal of EC80 acetylcholine response)
Assay type: cell-based
Details: CHO-K1 cells stably expressing human M1 receptor with aequorin; acetylcholine at EC80; calcium flux (luminescence); read-out: M1 IC50
Procedure, shortened: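 Antagonist mode: compound (final 0.1% DMSO) and coelenterazine-loaded M1/aequorin CHO-K1 cells incubated 30 min in the dark before EC80 acetylcholine addition. Calcium flash integrated as 40 s luminescence AUC; IC50 derived from dose-response curves.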

SMILES	IC50 [nM]
COc1cc([C@H](C)NCC(=O)N2CC3CCC(C2)N3c2ccc(C#N)cn2)ccc1F [Example 66, 6-(3-(((S)-1-(4-fluoro-3-methoxyphenyl)ethyl)glycyl)-3,8-diazabicyclo[3.2.1]octan-8-yl)nicotinonitrile]	< 10
COc1ccc(F)c([C@H](C)NCC(=O)N2CC3CCC(C2)N3c2ccc(C#N)cn2)c1 [Example 67, 6-(3-(((S)-1-(2-fluoro-5-methoxyphenyl)ethyl)glycyl)-3,8-diazabicyclo[3.2.1]octan-8-yl)nicotinonitrile]	< 10
C[C@H](NCC(=O)N1C[C@H]2CC[C@@H](C1)N2c1ccc(C#N)cn1)c1cccc2c1OC(F)(F)O2 [Example 68, 6-(3-(((S)-1-(2,2-difluorobcnzo[d][1,3]dioxol-4-yl)ethyl)glycyl)-3,8-diazabicyclo[3.2.1]octan-8-yl)nicotinonitrile]	< 10
N#Cc1ccc(N2C3CCC2CN(C(=O)CNC2(c4ccc(F)cn4)CC2)C3)nc1 [Example 69, 6-(3-((1-(5-fluoropyridin-2-yl)cyclopropyl)glycyl)-3,8-diazabicyclo[3.2.1]octan-8-yl)nicotinonitrile]	100 to 1000
N#Cc1ccc(N2C3CCC2CN(C(=O)CNC2(c4cccc(F)c4F)CC2)C3)nc1 [Example 70, 6-(3-((1-(2,3-difluorophenyl)cyclopropyl)glycyl)-3,8-diazabicyclo[3.2.1]octan-8-yl)nicotinonitrile]	100 to 1000
N#Cc1ccc(N2C3CCC2CN(C(=O)CNC2(c4cc(F)ccc4F)CC2)C3)nc1 [Example 71, 6-(3-((1-(2,5-difluorophenyl)cyclopropyl)glycyl)-3,8-diazabicyclo[3.2.1]octan-8-yl)nicotinonitrile]	100 to 1000
N#Cc1ccc(N2C3CCC2CN(C(=O)CNC2(c4c(F)cccc4F)CC2)C3)nc1 [Example 72, 6-(3-((1-(2,6-difluorophenyl)cyclopropyl)glycyl)-3,8-diazabicyclo[3.2.1]octan-8-yl)nicotinonitrile]	100 to 1000
COc1cc(C2(NCC(=O)N3CC4CCC(C3)N4c3ccc(C#N)cn3)CC2)ccn1 [Example 73, 6-(3-((1-(2-methoxypyridin-4-yl)cyclopropyl)glycyl)-3,8-diazabicyclo[3.2.1]octan-8-yl)nicotinonitrile]	10 to 100
COc1cc(C2(NCC(=O)N3CC4CCC(C3)N4c3ccc(C#N)cn3)CC2)c(F)cn1 [Example 74, 6-(3-((1-(5-fluoro-2-methoxypyridin-4-yl)cyclopropyl)glycyl)-3,8-diazabicyclo[3.2.1]octan-8-yl)nicotinonitrile]	10 to 100
COc1ccc(F)cc1C1(NCC(=O)N2CC3CCC(C2)N3c2ccc(C#N)cn2)CC1 [Example 76, 6-(3-((1-(5-fluoro-2-methoxyphenyl)cyclopropyl)glycyl)-3,8-diazabicyclo[3.2.1]octan-8-yl)nicotinonitrile]	< 10
COc1c(F)cccc1C1(NCC(=O)N2CC3CCC(C2)N3c2ccc(C#N)cn2)CC1 [Example 77, 6-(3-((1-(3-fluoro-2-methoxyphenyl)cyclopropyl)glycyl)-3,8-diazabicyclo[3.2.1]octan-8-yl)nicotinonitrile]	< 10
N#Cc1ccc(N2C3COCC2CN(C(=O)CNC2(c4ccc(F)cc4F)CC2)C3)nc1 [Example 78, 6-(7-((1-(2,4-difluorophenyl)cyclopropyl)glycyl)-3-oxa-7,9-diazabicyclo[3.3.1]nonan-9-yl)nicotinonitrile]	100 to 1000
N#Cc1ccc(N2C3CC2CN(C(=O)CNC2(c4ccc(F)cc4F)CC2)C3)nc1 [Example 79, 6-(3-((1-(2,4-difluorophenyl)cyclopropyl)glycyl)-3,6-diazabicyclo[3.1.1]heptan-6-yl)nicotinonitrile]	1000 to 10000
N#Cc1ccc(N2C[C@H]3C[C@@H]2CN3C(=O)CNC2(c3ccc(F)cc3F)CC2)nc1 [Example 80, 6-((1R,4R)-5-((1-(2,4-difluorophenyl)cyclopropyl)glycyl)-2,5-diazabicyclo[2.2.1]heptan-2-yl)nicotinonitrile]	> 1000
N#Cc1ccc(N2C[C@H]3CC[C@@H]2CN3C(=O)CNC2(c3ccc(F)cc3F)CC2)nc1 [Example 81, 6-((1R,4R)-5-((1-(2,4-difluorophenyl)cyclopropyl)glycyl)-2,5-diazabicyclo[2.2.2]octan-2-yl)nicotinonitrile]	> 1000
N#Cc1ccc(N2C[C@@H]3C[C@H]2CN3C(=O)CNC2(c3ccc(F)cc3F)CC2)nc1 [Example 82, 6-((1S,4S)-5-((1-(2,4-difluorophenyl)cyclopropyl)glycyl)-2,5-diazabicyclo[2.2.1]heptan-2-yl)nicotinonitrile]	> 1000
N#Cc1ccc(N2C[C@@H]3CC[C@H]2CN3C(=O)CNC2(c3ccc(F)cc3F)CC2)nc1 [Example 83, 6-((1S,4S)-5-((1-(2,4-difluorophenyl)cyclopropyl)glycyl)-2,5-diazabicyclo[2.2.2]octan-2-yl)nicotinonitrile]	1000 to 10000

SMILES	IC50 [nM]
N#Cc1cc(N2C3CCC2CN(C(=O)CNC2(c4ccc(F)cc4F)CC2)C3)ccn1 [Example 84, 4-(3-((1-(2,4-difluorophenyl)cyclopropyl)glycyl)-3,8-diazabicyclo[3.2.1]octan-8-yl)picolinonitrile]	100 to 1000
N#Cc1ccc(N2C3CCC2CN(C(=O)CNC2(c4ccc(F)cc4F)CC2)C3)cc1 [Example 85, 4-(3-((1-(2,4-difluorophenyl)cyclopropyl)glycyl)-3,8-diazabicyclo[3.2.1]octan-8-yl)benzonitrile]	10 to 100
Cc1ccc(N2C3CCC2CN(C(=O)CNC2(c4ccc(F)cc4F)CC2)C3)nn1 [Example 86, 2-((1-(2,4-difluorophenyl)cyclopropyl)amino)-1-(8-(6-methylpyridazin-3-yl)-3,8-diazabicyclo[3.2.1]octan-3-yl)ethan-1-one]	1000 to 10000
COc1cccc([C@H](C)NCC(=O)N2CC3CCC(C2)N3c2ccc(C#N)cn2)c1 [Example 92, 6-(3-(((S)-1-(3-methoxyphenyl)ethyl)glycyl)-3,8-diazabicyclo[3.2.1]octan-8-yl)nicotinonitrile]	< 10
COc1cc([C@H](C)NCC(=O)N2C[C@H]3CC[C@@H](C2)N3c2ccc(C#N)cn2)ccn1 [Example 93, 6-(3-(((S)-1-(2-methoxypyridin-4-yl)ethyl)glycyl)-3,8-diazabicyclo[3.2.1]octan-8-yl)nicotinonitrile]	< 10
N#Cc1ccc(N2C3CCC2CN(C(=O)CNC2(c4ccccc4)CC2)C3)nc1 [Example 94, 6-(3-((1-phenylcyclopropyl)glycyl)-3,8-diazabicyclo[3.2.1]octan-8-yl)nicotinonitrile]	1000 to 10000
N#Cc1ccc(N2C3CCC2CN(C(=O)CNC2(c4cccc(F)c4)CC2)C3)nc1 [Example 95, 6-(3-((1-(3-fluorophenyl)cyclopropyl)glycyl)-3,8-diazabicyclo[3.2.1]octan-8-yl)nicotinonitrile]	10 to 100
N#Cc1ccc(N2C3CCC2CN(C(=O)CNC2(c4ccc(F)cc4)CC2)C3)nc1 [Example 96, 6-(3-((1-(4-fluorophenyl)cyclopropyl)glycyl)-3,8-diaabicyclo[3.2.1]octan-8-yl)nicotinonitrile]	100 to 1000
COc1ccccc1C1(NCC(=O)N2CC3CCC(C2)N3c2ccc(C#N)cn2)CC1 [Example 97, 6-(3-((1-(2-methoxyphenyl)cyclopropyl)glycyl)-3,8-diazabicyclo[3.2.1]octan-8-yl)nicotinonitrile]	< 10
COc1cccc(C2(NCC(=O)N3CC4CCC(C3)N4c3ccc(C#N)cn3)CC2)c1 [Example 98]	< 10
N#Cc1ccc(C2(NCC(=O)N3CC4CCC(C3)N4c3ccc(C#N)cn3)CC2)cc1 [Example 100, 6-(3-((1-(4-cyanoplKml)cyclopropyl)glycyl)-3,8-diazabicyclo[3.2.1]oclaii-8-yl)mcotiiiomtrile]	> 1000
N#Cc1ccc(N2C3CCC2CN(C(=O)CNC2(c4ccccc4Br)CC2)C3)nc1 [Example 101, 6-(3-((1-(2-bromophenyl)cyclopropyl)glycyl)-3,8-diazabicyclo[3.2.1]octan-8-yl)nicotinonitrile]	10 to 100
N#Cc1ccc(N2C3CCC2CN(C(=O)CNC2(c4ccncc4)CC2)C3)nc1 [Example 102, 6-(3-((1-(pyridin-4-yl)cyclopropyl)glycyl)-3,8-diazabicyclo[3.2.1]octan-8-yl)nicotinonitrile]	100 to 1000
COc1cccc(C2(NCC(=O)N3CC4CCC(C3)N4c3ccc(C#N)cn3)CC2)c1F [Example 103, 6-(3-((1-(2-fluoro-3-methoxyphenyl)cyclopropyl)glycyl)-3,8-diazabicyclo[3.2.1]octan-8-yl)nicotinonitrile]	10 to 100
N#Cc1ccc(N2C3CCC2CN(C(=O)CN2CC(c4ccc(F)cc4)C2)C3)nc1 [Example 105, 6-(3-(2-(3-(4-fluorophenyl)azetidin-1-yl)acetyl)-3,8-diazabicyclo[3.2.1]octan-8-yl)nicotinonitrile]	> 1000
N#Cc1ccc(N2C3CCC2CN(C(=O)CNC2(c4cc(F)cc(F)c4)CC2)C3)nc1 [Example 107, 6-(3-((1-(3,5-difluorophenyl)cyclopropyl)glycyl)-3,8-diazabicyclo[3.2.1]octan-8-yl)nicotinonitrile]	10 to 100
COc1ccc(C2(NCC(=O)N3CC4CCC(C3)N4c3ccc(C#N)cn3)CC2)cc1F [Example 108]	100 to 1000
